In ChEMBL document CHEMBL6177932 (J Med Chem, 2024) one finds Activity and inhibition data, which are given here for 5 compounds.

The source made the active and inactive calls. No cut-off for these calls is given here.

The target of data set [1] is T1, Vitamin D3 receptor (Mus musculus) (UniProt P48281).
T1 sequence (whole entry): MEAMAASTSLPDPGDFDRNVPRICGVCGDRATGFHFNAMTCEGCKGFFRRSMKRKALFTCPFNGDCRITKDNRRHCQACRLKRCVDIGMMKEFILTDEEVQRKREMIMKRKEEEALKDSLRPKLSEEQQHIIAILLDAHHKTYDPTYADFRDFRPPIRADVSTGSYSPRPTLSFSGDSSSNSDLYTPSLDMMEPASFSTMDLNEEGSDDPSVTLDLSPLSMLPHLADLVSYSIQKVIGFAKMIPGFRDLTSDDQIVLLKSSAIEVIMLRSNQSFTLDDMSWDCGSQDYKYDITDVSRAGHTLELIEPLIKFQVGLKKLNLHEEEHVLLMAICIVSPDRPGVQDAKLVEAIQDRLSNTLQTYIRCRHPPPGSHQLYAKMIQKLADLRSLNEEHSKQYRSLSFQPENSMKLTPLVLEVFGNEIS
Description: Agonist activity at VDR in mouse 4TO7 cells assessed as induction of Cyp24a1 gene at 0.1 to 10 uM measured after 24 hrs by RT-qPCR analysis. The conditions noted are these: filed as agonist, dose 0.1-10 µM. In kind it is cell-based. Background: Quantitative PCR measures a nucleic acid by following its amplification.

The target of data set [2] is T1, Vitamin D3 receptor (Mus musculus). Description: Agonist activity at VDR in mouse 4T1 cells assessed as induction of Cyp24a1 gene at 0.1 to 10 uM measured after 24 hrs by RT-qPCR analysis. In kind it is cell-based. The conditions noted are these: filed as agonist, dose 0.1-10 µM.
In data set [3] the target is T2, Protein deacetylase HDAC6 (Mus musculus) (UniProt Q9Z2V5).
T2 sequence (whole entry): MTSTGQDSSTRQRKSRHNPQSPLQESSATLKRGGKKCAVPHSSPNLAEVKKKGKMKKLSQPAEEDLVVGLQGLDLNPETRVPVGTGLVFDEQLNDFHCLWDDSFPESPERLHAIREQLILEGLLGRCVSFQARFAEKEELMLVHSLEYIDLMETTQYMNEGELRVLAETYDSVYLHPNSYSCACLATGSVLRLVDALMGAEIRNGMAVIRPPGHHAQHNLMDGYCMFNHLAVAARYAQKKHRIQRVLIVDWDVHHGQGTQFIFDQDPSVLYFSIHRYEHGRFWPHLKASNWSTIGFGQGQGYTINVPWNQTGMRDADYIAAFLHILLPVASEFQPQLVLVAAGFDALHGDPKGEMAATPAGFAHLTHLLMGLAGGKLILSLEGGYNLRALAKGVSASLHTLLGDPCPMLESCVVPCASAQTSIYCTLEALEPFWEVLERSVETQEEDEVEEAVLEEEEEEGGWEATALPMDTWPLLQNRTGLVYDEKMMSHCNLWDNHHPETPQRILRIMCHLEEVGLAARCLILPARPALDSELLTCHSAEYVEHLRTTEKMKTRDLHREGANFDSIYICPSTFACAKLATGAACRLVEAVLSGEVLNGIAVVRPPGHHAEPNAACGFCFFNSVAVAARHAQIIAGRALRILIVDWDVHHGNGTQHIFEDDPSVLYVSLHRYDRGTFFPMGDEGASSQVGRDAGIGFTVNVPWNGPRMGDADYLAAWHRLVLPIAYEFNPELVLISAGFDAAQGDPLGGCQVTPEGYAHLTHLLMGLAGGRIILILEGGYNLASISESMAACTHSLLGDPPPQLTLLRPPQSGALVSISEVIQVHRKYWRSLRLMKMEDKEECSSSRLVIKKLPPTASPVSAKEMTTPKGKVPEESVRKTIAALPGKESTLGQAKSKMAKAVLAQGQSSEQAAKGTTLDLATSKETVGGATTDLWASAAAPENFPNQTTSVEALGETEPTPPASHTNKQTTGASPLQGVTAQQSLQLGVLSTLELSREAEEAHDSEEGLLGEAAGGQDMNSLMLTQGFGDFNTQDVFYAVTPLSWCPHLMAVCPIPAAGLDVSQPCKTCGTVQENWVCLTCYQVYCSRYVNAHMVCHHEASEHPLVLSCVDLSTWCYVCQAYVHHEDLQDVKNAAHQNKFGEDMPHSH
Description: Inhibition of HDAC6 in mouse B16-F10 cells assessed as induction of tubulin acetylation at 10 uM measured after 6 hrs by Western blot analysis. Format: cell-based.

Data set [4] relates to B16-F10. Description: Inhibition of class 1 HDAC in mouse B16-F10 cells assessed as induction of H3K9 acetylation at 10 uM measured after 6 hrs by Western blot analysis. Format: cell-based.
The subject of data set [5] is B16-F10. Description: Inhibition of class 1 HDAC in mouse B16-F10 cells assessed as induction of H3K27 acetylation at 10 uM measured after 6 hrs by Western blot analysis. In kind it is cell-based. For orientation: In western blotting, separated proteins are transferred to a membrane and probed.
Data set [6] can be described thus: Toxicity in mouse B16-F10 cells implanted C57BL/6 mouse assessed as effect on body weight at 50 mg/kg, ip administered daily for 28 days. Format: organism-based. The conditions noted are these: in vivo, time 28 day.
Data set [7] relates to B16-F10. Description: Antitumor activity against mouse B16-F10 cells implanted in C57BL/6 mouse assessed as reduction in tumor burden at 50 mg/kg, ip administered every second day for 18 days. The conditions noted are these: time 18.0 day. In kind it is functional, organism-based.
Data set [8] in a line: Toxicity in mouse B16-F10 cells implanted C57BL/6 mouse at 50 mg/kg, ip administered daily for 28 days. Format: organism-based. Particulars: in vivo, time 28 day.
Data set [9] deals with 4TO7. Briefly: Inhibition of class 1 HDAC in mouse 4TO7 cells assessed as induction of H3K27 acetylation at 10 uM measured after 6 hrs by Western blot analysis. Format: cell-based.
Data set [10] concerns 4TO7. Briefly: Inhibition of class 1 HDAC in mouse 4TO7 cells assessed as induction of H3K9 acetylation at 10 uM measured after 6 hrs by Western blot analysis. Format: cell-based.
The subject of data set [11] is 4T1. The conditions noted are these: Mus musculus, time 24.0 hrs.
Data set [12] deals with T2, Protein deacetylase HDAC6 (Mus musculus). Briefly: Inhibition of HDAC6 in mouse 4TO7 cells assessed as induction of tubulin acetylation at 10 uM measured after 6 hrs by Western blot analysis. Format: cell-based.
The test system of data set [13] is B16-F10. Description: Antitumor activity against mouse B16-F10 cells implanted in C57BL/6 mouse assessed as reduction in tumor burden at 0.2 mg/kg, ip administered every second day for 18 days. Format: functional, organism-based. The conditions noted are these: time 18.0 day.
The subject of data set [14] is Mus musculus. Briefly: Immunomodulatory activity in mouse 4T1 cells implanted BALB/c mouse assessed as reduction in Ccl2 gene expression at 0.2 mg/kg, ip administered daily for 18 days by RT-qPCR analysis. Particulars: time 18.0 day. Format: functional, organism-based.
The nature of data set [15]: Toxicity in 4T1 cells implanted BALB/c mouse assessed as stress at 0.2 mg/kg, ip administered daily for 18 days. In kind it is organism-based. The conditions noted are these: in vivo, 432 h, time 18 day.
For data set [16], the system named is 4T1. Briefly: Inhibition of class 1 HDAC in mouse 4T1 cells assessed as induction of H3K9 acetylation at 10 uM measured after 6 hrs by Western blot analysis. In kind it is cell-based.
Data set [17] deals with B16-F10. Description: Cytotoxicity against mouse B16-F10 cells assessed as reduction in cell viability at 0.01 to 100 uM measured after 24 hrs by RealTime-glo cell viability assay. Format: functional, cell-based. Particulars: dose 0.01-100 µM.
Data set [18] has as its system 4T1. Briefly: Inhibition of class 1 HDAC in mouse 4T1 cells assessed as induction of H3K27 acetylation at 10 uM measured after 6 hrs by Western blot analysis. In kind it is cell-based.
The subject of data set [19] is Mus musculus. Description: Immunomodulatory activity in mouse 4T1 cells implanted BALB/c mouse assessed as reduction in Ccl5 gene expression at 0.2 mg/kg, ip administered daily for 18 days by RT-qPCR analysis. Format: functional, organism-based. Particulars: time 18.0 day.
Data set [20] concerns Mus musculus. Briefly: Immunomodulatory activity in mouse 4T1 cells implanted BALB/c mouse assessed as reduction in Cxcl10 gene expression at 0.2 mg/kg, ip administered daily for 18 days by RT-qPCR analysis. Format: functional, organism-based. Particulars: time 18.0 day.
Data set [21] in a line: Toxicity in 4T1 cells implanted BALB/c mouse assessed as body weight loss at 0.2 mg/kg, ip administered daily for 18 days. Format: organism-based. The conditions noted are these: in vivo, 432 h, time 18 day.
The nature of data set [22]: Toxicity in mouse B16-F10 cells implanted C57BL/6 mouse assessed as effect on body weight at 0.2 mg/kg, ip administered daily for 28 days. The conditions noted are these: in vivo, time 28 day. Format: organism-based.
Data set [23] addresses T2, Protein deacetylase HDAC6 (Mus musculus). Description: Inhibition of HDAC6 in mouse 4T1 cells assessed as induction of tubulin acetylation at 10 uM measured after 6 hrs by Western blot analysis. In kind it is cell-based.
Data set [24] is described as follows: Toxicity in mouse B16-F10 cells implanted C57BL/6 mouse at 0.2 mg/kg, ip administered daily for 28 days. Format: organism-based. The conditions noted are these: in vivo, time 28 day.
The test system of data set [25] is Mus musculus. Description: Immunomodulatory activity in mouse 4T1 cells implanted BALB/c mouse assessed as induction of Il1a gene expression at 0.2 mg/kg, ip administered daily for 18 days by RT-qPCR analysis. Particulars: time 18.0 day. In kind it is functional, organism-based.
The test system of data set [26] is Mus musculus. Briefly: Immunomodulatory activity in mouse 4T1 cells implanted BALB/c mouse assessed as reduction in Ccl20 gene expression at 0.2 mg/kg, ip administered daily for 18 days by RT-qPCR analysis. The conditions noted are these: time 18.0 day. In kind it is functional, organism-based.
In data set [27] the test system is 4T1. Briefly: Antitumor activity against mouse 4T1 cells implanted in BALB/c mouse assessed as reduction in tumor burden at 0.2 mg/kg, ip administered daily for 18 days. Format: functional, organism-based. Particulars: time 18.0 day.

As to `CCC(CC)(c1ccc(C(=O)NCCCCCC(=O)NO)cc1)c1ccc(OCC(O)C(C)(C)C)c(C)c1` (configuration not stated), the result in data set [1] and in data set [2] was Active. Moreover, the inhibition result in [3], in data set [4] and in [5] was “Active; High Levels Of Acetylation Observed” in each case.

For `Nc1ccn([C@@H]2O[C@H](CO)[C@@H](O)C2(F)F)c(=O)n1` [GEMCITABINE], the Activity result in [6] and in [8] was “Non-toxic” in each case. The result in data set [7] was Active.

Consider `CCC(CC)(c1ccc(C(=O)NCCCC(=O)NO)cc1)c1ccc(OCC(O)C(C)(C)C)c(C)n1` (configuration not stated), for which the outcome in data set [1] and in data set [11] was Active. For the same compound, the inhibition entry in [9], in [10] and in data set [12] was “Active” each time. Further, the Activity result in data set [2] is listed as “Active; Did Not Appear To Be A Full Agonist”.

Take `CCC(CC)(c1ccc(OCCCCCC(=O)NO)cc1)c1ccc(OCC(O)C(C)(C)C)c(C)n1` (configuration not stated): the outcome in data set [13], in data set [14], in data set [1], in [17], in [2] and in data set [19] was Active. Besides, the result in data set [20], in [25], in data set [26] and in data set [27] was Active. In addition, the Activity result in data set [15], in data set [21], in data set [22] and in data set [24] was “Non-toxic” throughout. The inhibition result in data set [16], in [18] and in data set [23] was “Active” throughout.

Consider `CCC(CC)(c1ccc(C(=O)NCCCCCC(=O)NO)cc1)c1ccc(OCC(O)C(C)(C)C)c(C)n1` (configuration not stated), for which the outcome in data set [1] and in [11] was Active. The inhibition entry in data set [9], in data set [10] and in data set [12] was “Active” throughout. In addition, the Activity entry in data set [2] is listed as “Active; Did Not Appear To Be A Full Agonist”.
